Measured values reported in patent US10144817B2, “Active and intelligent additive, polymer and article” (Braskem S.A., priority 2010, dated 2018).

Experiment: Decomposition temperature of sensitive compounds and of the encapsulated additives
Type: physicochemical
Settings: not encapsulated
Source text: The sensitive compounds set forth in Table 1 constitute preferred examples of compounds that may be used in the preparation of the active and intelligent additive according to the present invention. The sensitive compounds release a certain amount of electrons according to the characteristic reaction for each compound.

Row | Compound | Decomposition Temperature of the Sensitive Compound
1 | O=C1O[C@H]([C@@H](O)CO)C(O)=C1O [Ascorbic Acid] | 190 °C
2 | Citric Acid | 175 °C
